# Results published in US20130101615A1, “METHODS FOR PREVENTING OR TREATING A DISEASE OR CONDITION ASSOCIATED WITH MYCOBACTERIUM AVIUM SUBSPECIES PARATUBERCULOSIS” (priority 2005, published 2013).
# Read-outs that look alike come from different tables or passages of the source.
# Columns and labels:
# [1] = tested on: MAP Dominic (ATCC 43545), isolated from human with Crohn's disease; type: cell-based, Mycobacterium avium subspecies paratuberculosis; conditions: vs 3.2% DMSO control
# [2] = tested on: MAP ATCC 19698 (bovine); type: cell-based, Mycobacterium avium subspecies paratuberculosis; conditions: Bovine MAP 19698, vs 3.2% DMSO control
# [3] = tested on: MAP UCF 4, isolated from human with Crohn's disease; assay: Radiometric BACTEC growth inhibition, MAP UCF4; type: cell-based, Mycobacterium avium subspecies paratuberculosis; conditions: Human MAP UCF4, vs 3.2% DMSO control
# [4] = tested on: MAP 303 (ruminant with Johne's disease); assay: Radiometric BACTEC growth inhibition, MAP 303; type: cell-based, Mycobacterium avium subspecies paratuberculosis; conditions: Bovine MAP 303, vs 3.2% DMSO control
# [5] = tested on: M. avium ATCC 25291; type: cell-based, M. avium subspecies avium; conditions: for % ΔcGI: M. avium 25291, vs 3.2% DMSO control
# [6] = tested on: M. avium 101; type: cell-based, M. avium subspecies avium; conditions: for % ΔcGI: vs 3.2% DMSO control
# [7] = tested on: MAP and M. avium strains; assay: Radiometric BACTEC growth inhibition, all strains tested; type: cell-based, Mycobacterium avium; conditions: any strain tested (MAP and M. avium)
# [8] = tested on: MAP and M. tuberculosis; type: in vivo, Mice; conditions: 15 μg i.p. in combination with Ag85B-ESAT-6 fusion protein, CFA then IFA; challenge at week 8
molecule,measurement,setting,value
"O=C1NC(=O)c2ccccc21 [Phthalimide, phthalimide]",% ΔcGI,"[1]; 1 μg/ml, Human MAP Dominic Expt. 1",−3%
same,% ΔcGI,"[1]; 1 μg/ml, Human MAP Dominic Expt. 2",−1%
same,% ΔcGI,"[1]; 4 μg/ml, Human MAP Dominic Expt. 1",7%
same,% ΔcGI,"[1]; 4 μg/ml, Human MAP Dominic Expt. 2",0%
same,% ΔcGI,"[1]; 16 μg/ml, Human MAP Dominic Expt. 1",0%
same,% ΔcGI,"[1]; 16 μg/ml, Human MAP Dominic Expt. 2",1%
same,% ΔcGI,"[1]; 64 μg/ml, Human MAP Dominic Expt. 1",2%
same,% ΔcGI,"[1]; 64 μg/ml, Human MAP Dominic Expt. 2",4%
same,% ΔcGI,[2]; 1 μg/ml,−2%
same,% ΔcGI,[2]; 4 μg/ml,−10%
same,% ΔcGI,[2]; 16 μg/ml,1%
same,% ΔcGI,[2]; 64 μg/ml,0%
same,% ΔcGI,[3]; 1 μg/ml,4%
same,% ΔcGI,[3]; 4 μg/ml,−2%
same,% ΔcGI,[3]; 16 μg/ml,1%
same,% ΔcGI,[3]; 64 μg/ml,3%
same,% ΔcGI,[4]; 1 μg/ml,−2%
same,% ΔcGI,[4]; 4 μg/ml,3%
same,% ΔcGI,[4]; 16 μg/ml,−13%
same,% ΔcGI,[4]; 64 μg/ml,6%
same,% ΔcGI,[5]; 1 μg/ml,2%
same,% ΔcGI,[5]; 4 μg/ml,4%
same,% ΔcGI,[5]; 16 μg/ml,1%
same,% ΔcGI,[5]; 64 μg/ml,12%
same,"effect on growth, in words",[5]; M. avium ATCC 25291,no dose-dependent inhibition
same,"effect on growth, in words",[6],no dose-dependent inhibition
same,% ΔcGI,[6]; 1 μg/ml,−3%
same,% ΔcGI,[6]; 4 μg/ml,4%
same,% ΔcGI,[6]; 16 μg/ml,2%
same,% ΔcGI,[6]; 64 μg/ml,−2%
same,"dose-dependent inhibition, in words",[7],no dose-dependent effect on any strain tested
same,"dose-dependent inhibition, in words",[7]; listed as phthalimide,did not exhibit a dose-dependent inhibition of any strain
"AhpD: Alkyl hydroperoxide reductase D, immunogenic MAP protein, recombinant antigen (protein, UniProt A0QGI9 1-178, looked up) Alkyl hydroperoxide reductase …: MSVENLKEALPEYAKDLKLNLGSITRTTELNEEQLWGTLLASAAATRNTQVLTEIGAEAADTLSAEAYHAALGAASVMAMNNVFYRGRGFLDGKYDDLRAGLRMNIIGNPGVEKANFELWCFAVSAINGCPDCVASHEHTLREAGVSRETIQEALKAAAIISGVAQAIVTSQTLATAG",protection against infection after immunization,[8],elicits a response capable of protecting against MAP and M. tuberculosis infection
